These results are taken from patent publication US20080241080A1, “COMPOSITION FOR TREATING XEROSTOMIA OR DRY MOUTH” (BIOCOSMETICS, S.L., priority 2007, published 2008).

This test in a line: Dentin loss under extreme erosion conditions, composition versus its three ingredients separately (Example 8). Details: species or system cow. As to conditions: 10 cycles: 5 min pre-treatment, 1% citric acid pH 2.3 for 3 min; vs distilled water. As for the experimental part:
The protective capacity of a mouthwash formulated with olive oil, trimethylglycine and xylitol in dentin subjected to extreme erosion conditions was analysed, compared to that of aqueous solutions of the three ingredients separately in the same concentrations used in the mouthwash tested. For the evaluation of effects a control was included consisting of distilled water.
Incisive teeth extracted from a cow's jaw were used, which were immersed in a 0.5% thymol solution at room temperature. The teeth were sectioned at the cementum-enamel junction by means of a water-cooled diamond scalpel (Exakt, Norderstedt, Germany), and the crowns and roots were embedded in acrylic resin cylinders (Paladur, Heraeus Kulzer, Wehrheim, Germany). Radicular cementum was completely eliminated. […]
Dentin loss was quantified performing profile or profilometric measurements (Mahr Perthometer, Göttingen, Germany). […] After the experiment the adhesive tapes were removed and the samples were analysed again. The average depth of the eroded surfaces was thus calculated with respect to basic surface profiles by means of specific software (Mahr Perthometer Concept 7.0, Mahr, Göttingen, Germany).
Dentin loss was calculated (mean±standard deviation) for each group and statistically analysed by Student's t test followed by Bonferroni's t test for multiple comparisons (Statistica 6.0, Statsoft, Tulsa, USA).

Turning to `OC[C@@H](O)[C@H](O)[C@@H](O)CO` [1% xylitol solution, xylitol], the “protective effect on dentin against erosion” value was “did not demonstrate any protective effect”.

Consider `C[N+](C)(C)CC(=O)[O-]` [2% trimethylglycine solution, trimethylglycine], for which the “protective effect on dentin against erosion” value is “did not demonstrate any protective effect”.
